“And” between values parts separate entries of the source, which are not always exact repeats. Identical values can stand only once.
How the values were obtained:
Format in all cases: functional, Homo sapiens
Set-up in all cases: dose or concentration left out as unconfirmed
[1] = test system: Colon cancer organoid; assay: Image-based profiling of donated chemical probes and chemogenomic kinase set in O09 CRC organoid. Image analysis is performed on the sum area metric, and the data were normalized to the DMSO control. After imaging the organoid viability is measured using the OneGloEX Luciferase Assay System. The normalized viability data and sum area are reported.
[2] = test system: Colon cancer organoid; assay: Image-based profiling of donated chemical probes and chemogenomic kinase set in O06 CRC organoid. Image analysis is performed on the sum area metric, and the data were normalized to the DMSO control. After imaging the organoid viability is measured using the OneGloEX Luciferase Assay System. The normalized viability data and sum area are reported.
[3] = test system: Colon cancer organoid; assay: Image-based profiling of donated chemical probes and chemogenomic kinase set in O21 CRC organoid. Image analysis is performed on the sum area metric, and the data were normalized to the DMSO control. After imaging the organoid viability is measured using the OneGloEX Luciferase Assay System. The normalized viability data and sum area are reported.

Structure (SMILES)	Cell Viability ([1]; Replication number 1)	Cell Viability ([1]; Replication number 2)	Cell Viability ([2]; Replication number 1)	Cell Viability ([2]; Replication number 2)	Cell Viability ([3]; Replication number 1)	Cell Viability ([3]; Replication number 2)
CCCCN(CCCC)C(=O)CN1C[C@@H](c2cc(OC)c3c(c2)OCO3)[C@H](C(=O)O)[C@H]1CC(C)(C)CCC [A-545]	137.08% and 104.407%	151.031% and 114.494%	97.8309% and 86.6511%	75.1695% and 72.7273%	100.23% and 87.9043%	101.691% and 84.1837%
CC(C)N(CCCNC(=O)Nc1ccc(C(C)(C)C)cc1)C[C@H]1O[C@@H](n2cc(Br)c3c(N)ncnc32)[C@H](O)[C@@H]1O	88.0955% and 91.1128%	116.782% and 110.611%	99.7362% and 93.745%	121.159% and 96.0701%	110.58% and 96.4076%	91.3203% and 86.9928%
Cl.Cl.NC1(c2ccc(-c3nc4ccn5c(=O)[nH]nc5c4cc3-c3ccccc3)cc2)CCC1	47.4878% and 37.8628%	66.6317% and 37.3678%	82.4513% and 94.6892%	74.7027% and 107.425%	81.7246% and 91.8083%	79.6922% and 92.9418%
Cn1cc(CCn2cnc(-c3cnn(C)c3)c2-c2ccc(C#N)cc2)cn1	104.672% and 93.4312%	96.0156% and 86.9496%	175.784% and 127.57%	222.733% and 136.219%	99.776% and 95.2319%	89.4066% and 104.177%
CN1CCN(C(=O)C(C)(C)c2ccc(C(=O)Nc3cn4cc(-c5ccncc5)ccc4n3)cc2)CC1 [T3-CLK]	41.227% and 51.6061%	31.6537% and 31.5444%	42.3595% and 97.4239%	42.5998% and 77.939%	57.8975% and 103.622%	54.6627% and 104.082%
Cn1c(C2(NC(=O)c3ccc(NCC4CCCCC4)nc3)CCC2)nc2ccc(/C=C/C(=O)O)cc21 [BI 7656]	151.482% and 117.548%	136.087% and 97.2553%	99.3838% and 109.64%	121.504% and 124.591%	95.8092% and 94.6419%	106.526% and 92.3751%
CCCCNNC(=O)c1ccc(Br)cc1	73.4793% and 89.7218%	77.458% and 82.3883%	141.347% and 94.2282%	136.66% and 100.85%	97.5198% and 109.34%	111.608% and 95.0477%
CC(=O)C1=C(C)N(c2cccc(C(F)(F)F)c2)C(=O)N[C@@H]1c1ccc(C#N)nc1 [BAY-678]	154.648% and 117.069%	95.0691% and 89.9598%	116.42% and 104.215%	86.788% and 60.6455%	123.826% and 98.3829%	102.879% and 115.306%
O=C(NCCN1CCOCC1)c1ccc2c(c1)C(=O)c1ccc(Nc3ccc(F)c(NC(=O)c4ccccc4)c3)cc1CC2 [FS-694]	75.6733% and 93.7852%	52.7357% and 85.0515%	84.5729% and 99.5951%	109.979% and 139.596%	104.56% and 105.311%	87.9959% and 93.3039%
CN(C)C(=O)c1ccc(-c2cc(C(=O)N(C)C3CCCC3)no2)cc1O	101.196% and 104.096%	94.5921% and 98.6379%	136.959% and 113.074%	141.385% and 104.673%	136.03% and 124.037%	110.351% and 113.842%
COc1cc(N2CCC(O)CC2)ccc1Nc1cc(Nc2ccccc2S(=O)(=O)C(C)C)c2cc[nH]c2n1	95.9238% and 77.0453%	69.9407% and 56.4198%	110.737% and 120.851%	95.8479% and 104.062%	85.5887% and 104.808%	115.828% and 93.8467%
O=C(NCc1ccccc1)c1ccc(S(=O)(=O)NCc2ccccc2)cc1	92.4038% and 93.7908%	103.22% and 86.1192%	187.548% and 135.666%	115.38% and 119.884%	112.801% and 110.51%	91.6281% and 94.6419%
CN(C)C(=O)Cn1cc(-c2nc(C3(c4ccc(-c5cnc(N)nc5)cc4)CC3)no2)cn1 [BI 0153]	152.465% and 95.0889%	176.713% and 106.608%	106.576% and 110.07%	80.0994% and 77.4652%	115.747% and 91.3972%	95.3195% and 84.6939%
O=C(O)c1ccc(-c2c[nH]c3ncc(-c4ccccc4)cc23)cc1C1CCCC1 [GSK-650394]	86.6407% and 76.4679%	121.957% and 104.927%	96.4947% and 115.731%	112.452% and 109.917%	104.512% and 92.3751%	123.401% and 109.943%
CC(C)NC(=O)N1CC[C@H](NC2=Nc3cc(F)ccc3N(CC(F)F)c3ccc(Cl)cc32)C1	65.8757% and 85.8718%	77.8958% and 74.4882%	76.3577% and 106.595%	67.4805% and 91.0899%	89.5308% and 79.3405%	112.883% and 89.5415%
Cc1cc(CN)cc(C)c1-c1ncn(C)c1-c1ccnc2cc(F)ccc12.Cl	165.285% and 103.632%	176.587% and 123.725%	218.867% and 141.584%	205.957% and 111.843%	125.215% and 107.577%	113.008% and 89.6778%
NS(=O)(=O)c1cc(NC(=O)Cc2ccccc2)ccc1Oc1cccc(Cl)c1 [BAY-1797]	109.148% and 118.264%	102.589% and 110.989%	118.794% and 140.984%	77.9849% and 83.6245%	97.444% and 106.533%	100.538% and 94.898%
O=C(O)c1ccc2c(c1)nc(Nc1cccc(Cl)c1)c1ccncc12 [SILMITASERTIB]	75.9271% and 48.6208%	96.2856% and 65.3282%	95.4776% and 72.7779%	97.8% and 96.4524%	103.567% and 112.056%	102.008% and 128.967%
CCN(C(=O)CO)[C@H]1CN(/C(=N\C#N)Nc2cccc(OC(F)F)c2)N=C1c1ccc(Cl)c(Cl)c1	95.5807% and 90.881%	163.22% and 117.738%	122.514% and 121.772%	131.133% and 123.792%	56.7523% and 64.6636%	98.5958% and 108.473%
Cc1cc(C)cc([C@@H]2c3cc(C)ccc3NC(=O)CN2C(=O)c2ccc(Br)s2)c1	106.396% and 98.9954%	263.199% and 111.182%	111.534% and 83.1141%	141.021% and 89.6176%	115.521% and 108.165%	94.8359% and 62.8282%
CCCS(=O)(=O)c1cc(NC2CC2)nc(-c2ccc3c(ccn3C3CC(C)(C)NC(C)(C)C3)c2)n1	103.467% and 88.0989%	115.748% and 108.331%	40.3908% and 48.3221%	87.7215% and 108.975%	82.8925% and 103.462%	85.2127% and 87.5298%

From ChEMBL document CHEMBL5724558, “Image-based profiling of drug vulnerabilities in CRC organoids” (2024)
